# Laboratory results reported in ChEMBL document CHEMBL5137051 (Eur J Med Chem, 2022).
# Experiments:
# A549 = test: Antiproliferative activity against human A549 cells assessed as cell viability after 72 hrs by MTT assay; assay type: functional, cell-based; conditions: A549, 72 h
# NCI-H1975 = test: Antiproliferative activity against human H1975 cells assessed as cell viability after 72 hrs by MTT assay; assay type: functional, cell-based; conditions: NCI-H1975, 72 h
# [1] = system: Epidermal growth factor receptor (Homo sapiens), P00533 [L858R,T790M,C797S]; conditions: dose 300.0 nM
# [2] = biological target: Epidermal growth factor receptor (Homo sapiens, UniProt P00533); test: Inhibition of wild type EGFR (unknown origin) by mobility shift assay
# [3] = biological target: Epidermal growth factor receptor (Homo sapiens, UniProt P00533, L858R/T790M); test: Inhibition of EGFR L858R/T790M mutant (unknown origin) by mobility shift assay
# [4] = biological target: Epidermal growth factor receptor (Homo sapiens, UniProt P00533, C797S/L858R/T790M); test: Inhibition of EGFR L858R/T790M/C797S mutant (unknown origin) by mobility shift assay
# [5] = biological target: Hepatocyte growth factor receptor (Homo sapiens, UniProt P08581); test: Inhibition of c-Met (unknown origin) by mobility shift assay
# Hepatocyte growth factor receptor, sequence (P08581 whole entry): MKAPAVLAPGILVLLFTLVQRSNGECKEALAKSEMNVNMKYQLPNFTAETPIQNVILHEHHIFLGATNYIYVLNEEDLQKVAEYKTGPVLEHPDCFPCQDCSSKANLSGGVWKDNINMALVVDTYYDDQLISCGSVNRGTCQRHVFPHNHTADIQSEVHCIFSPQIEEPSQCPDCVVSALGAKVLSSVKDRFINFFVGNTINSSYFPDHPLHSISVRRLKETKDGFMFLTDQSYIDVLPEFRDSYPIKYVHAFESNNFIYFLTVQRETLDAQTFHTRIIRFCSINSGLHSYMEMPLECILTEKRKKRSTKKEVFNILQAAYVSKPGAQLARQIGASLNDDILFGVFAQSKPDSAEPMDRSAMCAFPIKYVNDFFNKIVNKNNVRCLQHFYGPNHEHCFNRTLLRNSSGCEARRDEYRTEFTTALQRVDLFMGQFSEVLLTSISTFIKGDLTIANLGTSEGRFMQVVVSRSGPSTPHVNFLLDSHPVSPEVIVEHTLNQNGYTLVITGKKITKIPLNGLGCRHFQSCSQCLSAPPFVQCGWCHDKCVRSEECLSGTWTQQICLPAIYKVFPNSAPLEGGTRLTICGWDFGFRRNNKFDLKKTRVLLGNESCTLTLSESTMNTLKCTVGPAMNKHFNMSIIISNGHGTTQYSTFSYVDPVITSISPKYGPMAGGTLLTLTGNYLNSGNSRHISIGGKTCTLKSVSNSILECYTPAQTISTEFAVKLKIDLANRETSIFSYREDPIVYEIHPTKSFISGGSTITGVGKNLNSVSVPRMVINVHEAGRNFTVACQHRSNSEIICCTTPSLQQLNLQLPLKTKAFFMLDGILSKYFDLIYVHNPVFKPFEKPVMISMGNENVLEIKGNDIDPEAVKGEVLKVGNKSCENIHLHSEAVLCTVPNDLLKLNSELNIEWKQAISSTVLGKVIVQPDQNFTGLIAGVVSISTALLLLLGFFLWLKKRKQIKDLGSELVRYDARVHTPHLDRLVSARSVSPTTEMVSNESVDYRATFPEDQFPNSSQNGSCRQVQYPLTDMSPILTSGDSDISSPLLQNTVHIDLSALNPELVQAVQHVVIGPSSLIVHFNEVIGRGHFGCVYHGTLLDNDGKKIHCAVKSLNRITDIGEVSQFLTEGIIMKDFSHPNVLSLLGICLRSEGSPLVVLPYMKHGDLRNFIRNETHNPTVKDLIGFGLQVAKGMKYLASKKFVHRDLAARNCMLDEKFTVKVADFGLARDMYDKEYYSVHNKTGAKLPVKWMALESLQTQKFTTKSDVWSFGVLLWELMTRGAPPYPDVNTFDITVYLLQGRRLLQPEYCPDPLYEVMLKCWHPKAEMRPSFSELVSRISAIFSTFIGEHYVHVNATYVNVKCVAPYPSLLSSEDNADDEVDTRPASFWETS
# Epidermal growth factor receptor (Homo sapiens), P00533 [L858R,T790M,C797S], sequence (P00533 whole entry T790M/C797S/L858R): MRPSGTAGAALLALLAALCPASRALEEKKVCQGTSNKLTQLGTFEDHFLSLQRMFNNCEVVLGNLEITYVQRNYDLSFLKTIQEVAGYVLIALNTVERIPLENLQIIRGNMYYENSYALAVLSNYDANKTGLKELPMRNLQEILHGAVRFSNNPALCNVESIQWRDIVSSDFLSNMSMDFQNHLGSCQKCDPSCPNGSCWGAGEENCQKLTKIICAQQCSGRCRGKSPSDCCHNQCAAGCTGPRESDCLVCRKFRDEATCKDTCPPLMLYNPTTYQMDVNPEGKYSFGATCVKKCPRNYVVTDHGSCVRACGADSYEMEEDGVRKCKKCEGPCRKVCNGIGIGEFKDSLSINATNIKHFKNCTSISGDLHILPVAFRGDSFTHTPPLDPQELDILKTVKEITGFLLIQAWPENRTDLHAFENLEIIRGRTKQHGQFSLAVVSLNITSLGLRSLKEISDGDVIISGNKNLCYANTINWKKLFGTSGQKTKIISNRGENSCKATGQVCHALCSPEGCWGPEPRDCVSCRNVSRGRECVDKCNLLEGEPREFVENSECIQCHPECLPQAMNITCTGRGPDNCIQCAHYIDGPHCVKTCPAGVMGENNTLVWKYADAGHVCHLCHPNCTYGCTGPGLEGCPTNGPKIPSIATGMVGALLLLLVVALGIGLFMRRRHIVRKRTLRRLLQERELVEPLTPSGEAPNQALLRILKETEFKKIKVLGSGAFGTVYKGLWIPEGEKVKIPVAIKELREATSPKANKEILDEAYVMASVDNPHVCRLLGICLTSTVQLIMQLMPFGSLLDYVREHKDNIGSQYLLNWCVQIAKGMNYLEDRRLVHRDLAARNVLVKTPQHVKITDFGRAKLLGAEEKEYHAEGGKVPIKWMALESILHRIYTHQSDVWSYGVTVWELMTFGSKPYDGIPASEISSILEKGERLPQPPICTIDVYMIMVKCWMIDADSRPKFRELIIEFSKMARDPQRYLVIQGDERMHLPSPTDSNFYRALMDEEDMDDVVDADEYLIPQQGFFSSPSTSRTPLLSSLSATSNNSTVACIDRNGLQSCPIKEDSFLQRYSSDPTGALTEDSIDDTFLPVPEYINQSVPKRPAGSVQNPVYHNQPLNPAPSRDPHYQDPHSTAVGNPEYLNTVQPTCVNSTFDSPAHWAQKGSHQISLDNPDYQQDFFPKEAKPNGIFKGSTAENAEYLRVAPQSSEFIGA
# Epidermal growth factor receptor (Homo sapiens, UniProt P00533, C797S/L858R/T790M), sequence (P00533 25-1210 T790M/C797S/L858R limits assumed): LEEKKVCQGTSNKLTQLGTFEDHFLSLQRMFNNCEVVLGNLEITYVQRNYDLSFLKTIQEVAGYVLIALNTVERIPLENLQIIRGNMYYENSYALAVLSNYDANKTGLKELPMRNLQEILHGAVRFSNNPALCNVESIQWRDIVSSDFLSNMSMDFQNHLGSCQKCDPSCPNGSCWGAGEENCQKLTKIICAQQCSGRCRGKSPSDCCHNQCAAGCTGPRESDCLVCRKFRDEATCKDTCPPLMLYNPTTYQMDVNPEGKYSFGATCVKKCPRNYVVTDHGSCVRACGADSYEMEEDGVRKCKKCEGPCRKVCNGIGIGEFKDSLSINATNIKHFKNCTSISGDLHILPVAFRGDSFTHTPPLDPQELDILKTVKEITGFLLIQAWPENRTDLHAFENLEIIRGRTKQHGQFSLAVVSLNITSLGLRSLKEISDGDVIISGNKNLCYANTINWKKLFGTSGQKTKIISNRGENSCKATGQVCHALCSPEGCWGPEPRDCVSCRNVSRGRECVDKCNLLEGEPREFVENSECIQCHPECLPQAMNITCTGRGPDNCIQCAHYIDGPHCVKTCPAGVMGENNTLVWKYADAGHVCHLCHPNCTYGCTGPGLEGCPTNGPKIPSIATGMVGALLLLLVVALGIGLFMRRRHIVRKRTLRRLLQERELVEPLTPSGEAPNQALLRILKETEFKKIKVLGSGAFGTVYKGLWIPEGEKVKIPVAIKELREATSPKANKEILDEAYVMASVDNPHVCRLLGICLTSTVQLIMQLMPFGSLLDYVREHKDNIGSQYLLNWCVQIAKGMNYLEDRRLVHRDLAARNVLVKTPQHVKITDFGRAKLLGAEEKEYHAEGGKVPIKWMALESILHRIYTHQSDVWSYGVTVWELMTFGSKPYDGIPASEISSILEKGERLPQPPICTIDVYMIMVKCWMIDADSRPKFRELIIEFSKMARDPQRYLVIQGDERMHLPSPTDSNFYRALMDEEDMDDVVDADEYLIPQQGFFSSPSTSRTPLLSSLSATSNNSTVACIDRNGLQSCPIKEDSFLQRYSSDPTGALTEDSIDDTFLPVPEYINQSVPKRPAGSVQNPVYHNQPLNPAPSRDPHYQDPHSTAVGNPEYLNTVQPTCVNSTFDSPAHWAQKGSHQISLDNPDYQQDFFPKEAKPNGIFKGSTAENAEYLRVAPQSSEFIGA
# Epidermal growth factor receptor (Homo sapiens, UniProt P00533, L858R/T790M), sequence (P00533 25-1210 T790M/L858R limits assumed): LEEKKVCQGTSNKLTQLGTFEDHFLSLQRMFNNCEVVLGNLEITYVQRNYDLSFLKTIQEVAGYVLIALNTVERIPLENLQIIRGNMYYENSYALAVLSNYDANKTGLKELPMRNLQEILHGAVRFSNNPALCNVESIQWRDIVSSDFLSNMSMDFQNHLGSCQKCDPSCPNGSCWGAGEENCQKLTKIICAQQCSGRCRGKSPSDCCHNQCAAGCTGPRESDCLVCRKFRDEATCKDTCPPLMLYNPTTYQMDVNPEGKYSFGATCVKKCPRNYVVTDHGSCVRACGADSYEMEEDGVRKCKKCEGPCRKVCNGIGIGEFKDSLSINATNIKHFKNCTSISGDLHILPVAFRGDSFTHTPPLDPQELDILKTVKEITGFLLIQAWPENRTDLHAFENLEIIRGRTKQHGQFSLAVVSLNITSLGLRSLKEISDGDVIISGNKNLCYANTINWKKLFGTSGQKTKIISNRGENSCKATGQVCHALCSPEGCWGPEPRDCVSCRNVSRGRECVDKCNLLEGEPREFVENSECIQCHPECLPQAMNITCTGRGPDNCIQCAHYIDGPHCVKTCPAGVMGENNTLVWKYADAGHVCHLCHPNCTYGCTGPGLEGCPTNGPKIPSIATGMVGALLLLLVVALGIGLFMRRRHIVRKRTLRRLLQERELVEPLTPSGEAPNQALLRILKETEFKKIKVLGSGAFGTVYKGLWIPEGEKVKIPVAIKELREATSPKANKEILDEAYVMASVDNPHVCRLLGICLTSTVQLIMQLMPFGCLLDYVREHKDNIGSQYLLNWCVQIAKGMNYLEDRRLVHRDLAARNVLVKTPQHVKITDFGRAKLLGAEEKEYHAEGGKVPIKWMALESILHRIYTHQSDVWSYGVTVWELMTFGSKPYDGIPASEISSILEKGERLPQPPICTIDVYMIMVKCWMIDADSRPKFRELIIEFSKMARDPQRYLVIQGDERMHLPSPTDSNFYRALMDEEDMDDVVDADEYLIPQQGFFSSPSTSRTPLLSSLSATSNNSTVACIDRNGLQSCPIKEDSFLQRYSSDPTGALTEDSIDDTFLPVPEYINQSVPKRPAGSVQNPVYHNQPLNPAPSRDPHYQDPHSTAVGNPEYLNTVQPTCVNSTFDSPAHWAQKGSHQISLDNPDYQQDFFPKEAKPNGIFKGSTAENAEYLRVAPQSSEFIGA
IC50 (A549) [nM],IC50 (NCI-H1975) [nM],inhibition [1] [%],IC50 [2] [nM],IC50 [3] [nM],IC50 [4] [nM],IC50 [5] [nM],SMILES
9000,1470,18.1,,,,,COc1cc(N(C)C)c(NC(=O)c2ccncc2)cc1Nc1nccc(-c2cn(C)c3ccccc23)n1
2490,24800,9.7,,,,,COc1cc(F)c(NC(=O)c2cnccn2)cc1Nc1nccc(-c2cn(C)c3ccccc23)n1
4230,1160,12.8,,,,,COc1ccc(C(=O)Nc2cc(Nc3nc(-c4cn(C)c5ccccc45)c4cccnc4n3)c(OC)cc2N(C)CCN(C)C)nc1
970,2050,42.9,> 500,> 500,420,> 1000,COc1cc(N(C)CCN(C)C)c(NC(=O)c2ccnc(Cl)c2)cc1Nc1nccc(-c2cn(C)c3ccccc23)n1
5140,10600,7.7,,,,,COc1cc(F)c(NC(=O)c2nccn2C)cc1Nc1nccc(-c2cn(C)c3ccccc23)n1
3030,12100,7.9,,,,,COc1cc(N(C)C)c(NC(=O)c2ccncc2OC)cc1Nc1nccc(-c2cn(C)c3ccccc23)n1
2490,650,38.2,146,30,> 500,> 1000,COc1cc(N(C)CCN(C)C)c(NC(=O)c2ncccn2)cc1Nc1nccc(-c2cn(C)c3ccccc23)n1
3430,4120,2.2,,,,,COc1cc(F)c(NC(=O)c2ccncc2OC)cc1Nc1nccc(-c2cn(C)c3ccccc23)n1
11200,12000,38.1,> 500,> 500,> 500,> 1000,COc1cc(N(C)CCN(C)C)c(NC(=O)c2ccnc(O)c2)cc1Nc1nccc(-c2cn(C)c3ccccc23)n1
8290,10400,10.5,,,,,COc1cc(N(C)C)c(NC(=O)c2ccccn2)cc1Nc1nccc(-c2cn(C)c3ccccc23)n1
5150,2130,1.2,,,,,COc1ccc(C(=O)Nc2cc(Nc3nccc(-c4cn(C)c5ccccc45)n3)c(OC)cc2N(C)C)nc1
4330,1220,38.2,224,17,> 500,> 1000,COc1cc(N(C)CCN(C)C)c(NC(=O)c2cnccn2)cc1Nc1nccc(-c2cn(C)c3ccccc23)n1
8200,16800,1.5,,,,,COc1ccc(C(=O)Nc2cc(Nc3nccc(-c4cn(C)c5ccccc45)n3)c(OC)cc2F)nc1
11700,5920,10.6,,,,,COc1cc(F)c(NC(=O)c2ccnc(O)c2)cc1Nc1nccc(-c2cn(C)c3ccccc23)n1
10200,2880,12.1,,,,,COc1cc(N(C)C)c(NC(=O)c2nccn2C)cc1Nc1nccc(-c2cn(C)c3ccccc23)n1
8400,13500,9.6,,,,,COc1cc(F)c(NC(=O)c2ncccn2)cc1Nc1nccc(-c2cn(C)c3ccccc23)n1
2660,2120,65.6,590,41,161,> 1000,COc1cc(N(C)CCN(C)C)c(NC(=O)c2ccncn2)cc1Nc1nccc(-c2cn(CCCO)c3ccccc23)n1
5640,4200,19.4,> 500,420,> 500,> 1000,COc1cc(N(C)CCN(C)C)c(NC(=O)c2nccn2C)cc1Nc1nc(-c2cn(C)c3ccccc23)c2cccnc2n1

IC50 (A549) [nM],IC50 (NCI-H1975) [nM],inhibition [1] [%],IC50 [2] [nM],IC50 [3] [nM],IC50 [4] [nM],IC50 [5] [nM],SMILES
2390,1970,49.5,,,,,COc1cc(N(C)CCN(C)C)c(NC(=O)c2ccncc2OC)cc1Nc1nccc(-c2cn(CCCO)c3ccccc23)n1
2550,3320,,,,,> 1000,COc1cc(N(C)CCN(C)C)c(NC(=O)c2nccn2C)cc1Nc1nccc(-c2cn(C)c3ccccc23)n1
1600,1750,41.6,> 500,360,> 500,> 1000,COc1cc(N(C)CCN(C)C)c(NC(=O)c2cccnc2)cc1Nc1nccc(-c2cn(C)c3ccccc23)n1
8640,5400,7.4,,,,,COc1cc(N(C)C)c(NC(=O)c2ncccn2)cc1Nc1nccc(-c2cn(C)c3ccccc23)n1
4200,4370,15.5,,,,,COc1cc(F)c(NC(=O)c2ccncc2)cc1Nc1nccc(-c2cn(C)c3ccccc23)n1
2840,3660,-1.8,,,,,COc1cc(N(C)C)c(NC(=O)c2ccnc(Cl)n2)cc1Nc1nccc(-c2cn(C)c3ccccc23)n1
10100,16300,-9.4,,,,,COc1cc(N(C)CCN(C)C)c(NC(=O)c2cnccn2)cc1Nc1nc(-c2cn(C)c3ccccc23)c2ccccc2n1
2140,1820,70.1,743,42,137,> 1000,COc1cc(N(C)CCN(C)C)c(NC(=O)c2ccnc(Cl)c2)cc1Nc1nccc(-c2cn(CCCO)c3ccccc23)n1
2690,1010,28.5,> 500,100,> 500,> 1000,COc1cc(N(C)CCN(C)C)c(NC(=O)c2ccncc2OC)cc1Nc1nccc(-c2cn(C)c3ccccc23)n1
10400,6860,24,> 500,391,> 500,> 1000,COc1cc(N(C)CCN(C)C)c(NC(=O)c2ccncc2)cc1Nc1nccc(-c2cn(C)c3ccccc23)n1
5230,4230,,,,,> 1000,COc1ccc(C(=O)Nc2cc(Nc3nccc(-c4cn(C)c5ccccc45)n3)c(OC)cc2N(C)CCN(C)C)nc1
3430,9200,9.4,,,,,COc1cc(N(C)C)c(NC(=O)c2ccnc(Cl)c2)cc1Nc1nccc(-c2cn(C)c3ccccc23)n1
5160,1250,8.8,,,,,COc1cc(N(C)C)c(NC(=O)c2ccncn2)cc1Nc1nccc(-c2cn(C)c3ccccc23)n1
4520,1090,22.3,360,> 500,> 500,> 1000,COc1cc(N(C)CCN(C)C)c(NC(=O)c2ccncn2)cc1Nc1nc(-c2cn(C)c3ccccc23)c2cccnc2n1
6890,4330,9.6,,,,,COc1cc(F)c(NC(=O)c2ccnc(Cl)c2)cc1Nc1nccc(-c2cn(C)c3ccccc23)n1
7980,16500,-1.4,,,,,COc1cc(F)c(NC(=O)c2ccccn2)cc1Nc1nccc(-c2cn(C)c3ccccc23)n1
3560,3120,24.7,,,,,COc1cc(N(C)C)c(NC(=O)c2c[nH]cn2)cc1Nc1nccc(-c2cn(C)c3ccccc23)n1

SMILES,IC50 (A549) [nM],IC50 (NCI-H1975) [nM],inhibition [1] [%],IC50 [2] [nM],IC50 [3] [nM],IC50 [4] [nM],IC50 [5] [nM]
C=CC(=O)Nc1cc(Nc2nccc(-c3cn(C)c4ccccc34)n2)c(OC)cc1N(C)CCN(C)C [OSIMERTINIB],1870,[…],,,,,> 1000
